We go through two compounds from US20180193365A1, “USE OF HYDROGEN SULFIDE TO PREVENT LENS OPACIFICATION” (Creighton University, priority 2017, published 2018).

Entries after “also recorded” stand apart in the source; their conditions may differ.

Assay [1] concerns cultured bovine lenses. The assay can be described thus: H2O2-induced lens degradation/opacification in cultured bovine lenses (light transmittance, photographs). In kind it is cell-based.
For assay [2], the system named is glutathione (GSH). The note with it: 50 mM; 120 hours.
The test system of assay [3] is cultured bovine lenses. As to the kind of experiment: Lens degradation/opacification of DMEM-cultured bovine lenses (light transmittance, photographs). Conditions: 120 hours; for attenuation of light transmittance compared to untreated DMEM lenses (time=0 hours): 420 nm. In kind it is cell-based.

For the compound `OO` [H2O2, hydrogen peroxide], the “decrease of light transmittance compared to DMEM-cultured lenses (time=0 hour)” value in assay [1] (50 mM, after 120 hours) is listed as 36.76%. Besides, the “attenuation of GSH content compared to untreated lenses (time=0 hours)” value in assay [2] came out at 82.56%.

As to `O=C1O[C@H]([C@@H](O)CO)C(O)=C1O` [ascorbic acid], the “attenuation of light transmittance compared to untreated DMEM lenses (time=0 hours)” value in assay [3] (3 mM) is 60.57%. In addition, in assay [3] (10 mM), the “attenuation of light transmittance compared to untreated DMEM lenses (time=0 hours)” value amounted to 57.42% and the “qualitative assessment of lens opacity (photographs against grid)” value is on record as “accelerated the degradation process; also recorded: accelerated lens degradation; also recorded: accelerated clouding of the lens”. In assay [1] (3 mM, H2O2 50 mM, 120 hours), the “attenuation of H2O2-induced inhibition of light transmittance” value is reported as 9.22% and the “qualitative assessment of H2O2-induced lens opacity (photographs against grid)” value is given as “protected lenses from peroxide-induced degradation”. In addition, in assay [1] (10 mM, H2O2 50 mM, 120 hours), the “protection from peroxide-induced lens degradation” value is “failed to protect”.
